Assay results as given in PMC8975978, “Bioassay-guided isolation of cytotoxic constituents from the flowers of Aquilaria sinensis” (Natural Products and Bioprospecting, 2022).
Converted amounts (≈) assume the structure as drawn. Where two headings read alike, the source gives them in different places.

Legend:
[1] = system: human lung adenocarcinoma SPC-A-1 cells; assay: MTS cytotoxicity assay, SPC-A-1; type: cell-based
Method: (§1) It had better inhibition against lung cancer cell lines than against other cancer cell lines (Table 1). Thus, the next bioactivity-guided separations were conducted according to the cytotoxicities of the fractions against lung cancer cell lines (A-549, NCI-H520, and SPC-A-1), as well as normal BEAS-2B cells and paclitaxel-resistant lung cancer A549/Taxol cells.
(§2) The cytotoxicity activities were evaluated by MTS assay as previously described.

[2] = system: human lung squamous cell carcinoma NCI-H520 cells; assay: MTS cytotoxicity assay, NCI-H520; type: cell-based
Method: as §1, §2

[3] = system: human lung adenocarcinoma A549 cells; assay: MTS cytotoxicity assay, A549; type: cell-based
Method: as §1, §2

[4] = system: human cervical cancer HeLa cells; assay: MTS cytotoxicity assay, HeLa; type: cell-based; settings: Table 1, HeLa
Method: as §1, §2

[5] = system: human neuroblastoma SH-SY5Y cells; assay: MTS cytotoxicity assay, SH-SY5Y; type: cell-based; settings: Table 1, SH-SY5Y
Method: as §1, §2

[6] = system: human ovarian carcinoma SK-OV-3 cells; assay: MTS cytotoxicity assay, SK-OV-3; type: cell-based; settings: Table 1, SK-OV-3
Method: as §1, §2

[7] = system: human T-cell leukemia MT4 cells; assay: MTS cytotoxicity assay, MT4; type: cell-based; settings: Table 1, MT4
Method: as §1, §2

[8] = system: human prostate cancer PC-3 cells; assay: MTS cytotoxicity assay, PC-3; type: cell-based; settings: Table 1, PC-3
Method: as §1, §2

[9] = system: human hepatoma SMMC-7721 cells; assay: MTS cytotoxicity assay, SMMC-7721; type: cell-based; settings: Table 1, SMMC-7721
[10] = system: human breast cancer MDA-MB-231 cells; assay: MTS cytotoxicity assay, MDA-MB-231; type: cell-based; settings: Table 1, MDA-MB-231
Method: as §1, §2

[11] = system: human small cell lung cancer NCI-H446 cells; assay: MTS cytotoxicity assay, NCI-H446; type: cell-based; settings: Table 1, NCI-H446
Method: as §1, §2

[12] = system: human large cell lung carcinoma NCI-H460 cells; assay: MTS cytotoxicity assay, NCI-H460; type: cell-based; settings: Table 1, NCI-H460
Method: as §1, §2

[13] = system: human colon cancer SW-480 cells; assay: MTS cytotoxicity assay, SW480; type: cell-based; settings: Table 1, SW480
Method: as §1, §2

[14] = system: human breast cancer MCF-7 cells; assay: MTS cytotoxicity assay, MCF-7; type: cell-based; settings: Table 1, MCF-7
Method: as §1, §2

[15] = system: human leukemia HL-60 cells; assay: MTS cytotoxicity assay, HL-60; type: cell-based; settings: Table 1, HL-60
Method: as §1, §2

[16] = system: human normal bronchial epithelial BEAS-2B cells; assay: MTS cytotoxicity assay, normal BEAS-2B; type: cell-based
Method: as §1, §2

[17] = system: paclitaxel-resistant A549 (A549/Taxol) cells; assay: MTS cytotoxicity assay, A549/Taxol; type: cell-based, human
Method: as §1, §2

[18] = system: SPC-A-1, NCI-H520, A549 and A549/Taxol cell lines; assay: MTS cytotoxicity assay, four tested lung cancer cell lines together; type: cell-based, human
Method: Thus, the next bioactivity-guided separations were conducted according to the cytotoxicities of the fractions against lung cancer cell lines (A-549, NCI-H520, and SPC-A-1), as well as normal BEAS-2B cells and paclitaxel-resistant lung cancer A549/Taxol cells.
Isolates 1–6 were evaluated for their cytotoxicities against SPC-A-1, NCI-H520, A549, A549/Taxol, and BEAS-2B cell lines (Table 5).
as §2

[19] = system: human colon cancer Caco2 cells; assay: MTS cytotoxicity assay, Caco2; type: cell-based; settings: Caco-2, Table 1, Caco2
SK-MEL cells = system: SK-MEL cells; parameters: method as in PMID 28754541; settings: cited from earlier work
[20] = Table 5, SPC-A-1, read-out: IC50
[21] = Table 5, NCI-H520, read-out: IC50
[22] = Table 5, BEAS-2B normal cells, read-out: IC50
[23] = Table 5, A549/Taxol, read-out: IC50
[24] = Homo sapiens, SPCA1, Table 5, SPC-A-1, read-out: IC50
[25] = Homo sapiens, NCI-H520, Table 5, NCI-H520, read-out: IC50
[26] = Homo sapiens, A549, Table 5, A549, read-out: IC50
[27] = Homo sapiens, Table 5, BEAS-2B normal cells, read-out: IC50
[28] = Homo sapiens, A549/Taxol, Table 5, A549/Taxol, read-out: IC50
[29] = four tested cancer cell lines taken together (SPC-A-1, NCI-H520, A549, A549/Taxol)
[30] = Homo sapiens, Table 5, NCI-H520, read-out: IC50
[31] = Homo sapiens, Table 5, A549, read-out: IC50
[32] = Homo sapiens, BEAS-2B, Table 5, BEAS-2B normal cells, read-out: IC50

N.N.[Cl][Pt][Cl] [Cisplatin]
IC50 ([1]; Table 1, SPC-A-1): 1.76 ± 0.40 µg/mL | IC50 ([1]; Table 2, SPC-A-1): 3.10 ± 0.13 µg/mL | IC50 ([1]; Table 3, SPC-A-1): 3.06 ± 1.07 µg/mL | IC50 ([1]; Table 4, SPC-A-1): 2.49 ± 0.07 µg/mL | IC50 [1, 20]: 21400 ± 350 nM | IC50 ([2]; Table 1, NCI-H520): 6.69 ± 1.46 µg/mL | IC50 ([2]; Table 2, NCI-H520): 3.12 ± 0.18 µg/mL | IC50 ([2]; Table 3, NCI-H520): 3.75 ± 0.52 µg/mL | IC50 ([2]; Table 4, NCI-H520): 3.11 ± 0.22 µg/mL | IC50 [2, 21]: 12000 ± 600 nM | IC50 ([3]; Table 1, A549): 3.83 ± 0.79 µg/mL | IC50 ([3]; Table 2, A-549): 4.99 ± 0.08 µg/mL | IC50 ([3]; Table 3, A549): 3.02 ± 0.59 µg/mL | IC50 ([3]; Table 4, A549): 2.28 ± 0.57 µg/mL | IC50 ([3]; Table 5, A549, read-out: IC50): 13500 ± 640 nM | IC50 [4]: 1.14 ± 0.152 µg/mL | IC50 [5]: 2.85 ± 0.272 µg/mL | IC50 [6]: 3.67 ± 0.97 µg/mL | IC50 [7]: 0.16 ± 0.01 µg/mL | IC50 [8]: 1.38 ± 0.23 µg/mL | IC50 [9]: 1.53 ± 0.11 µg/mL | IC50 [10]: 3.16 ± 0.97 µg/mL | IC50 [11]: 3.78 ± 0.79 µg/mL | IC50 [12]: 5.29 ± 0.48 µg/mL | IC50 [13]: 2.00 ± 0.52 µg/mL | IC50 [14]: 2.00 ± 0.93 µg/mL | IC50 [15]: 1.97 ± 1.30 µg/mL | IC50 ([16]; Table 1, BEAS-2B normal cells): 9.14 ± 1.41 µg/mL | IC50 ([16]; Table 2, BEAS-2B normal cells): 7.36 ± 0.56 µg/mL | IC50 ([16]; Table 3, BEAS-2B normal cells): > 12 µg/mL | IC50 ([16]; Table 4, BEAS-2B normal cells): 8.86 ± 1.32 µg/mL | IC50 [16, 22]: 34900 ± 1160 nM | IC50 ([17]; Table 2, A549/Taxol): 4.29 ± 0.26 µg/mL | IC50 ([17]; Table 3, A549/Taxol): 3.41 ± 0.47 µg/mL | IC50 ([17]; Table 4, A549/Taxol): 4.13 ± 0.86 µg/mL | IC50 [17, 23]: 15000 ± 930 nM

CC(=O)OC(C)(C)C=CC(=O)C(C)(O)C1C(O)CC2(C)C3CC=C4C(CC(=O)OC4(C)C)C3(C)C(=O)CC12C (stereo not shown) [Compound 1, aquilarolide A]
IC50 [1, 24]: 560 ± 20 nM | IC50 [2, 25]: 160 ± 10 nM | IC50 [3, 26]: 350 ± 60 nM | IC50 [16, 27]: 17900 ± 300 nM | IC50 [17, 28]: 200 ± 10 nM

CC(=O)OC(C)(C)CCC(=O)[C@](C)(O)[C@H]1[C@H](O)C[C@@]2(C)[C@@H]3CC=C4[C@@H](C=C(O)C(=O)C4(C)C)[C@]3(C)C(=O)C[C@]12C [Compound 2, 23,24-dihydrocucurbitacin E]
IC50 [1, 24]: > 40000 nM | IC50 [2, 25]: > 40000 nM | IC50 [3, 26]: > 40000 nM | IC50 [16, 27]: > 40000 nM | IC50 [17, 28]: > 40000 nM | IC50 [18, 29]: inactive

CC(=O)OC(C)(C)/C=C/C(=O)[C@](C)(O)[C@H]1[C@H](O)C[C@@]2(C)[C@@H]3CC=C4[C@@H](C=C(O)C(=O)C4(C)C)[C@]3(C)C(=O)C[C@]12C [Compound 3, cucurbitacin E]
IC50 ([1]; Table 5, SPC-A-1, listed as Cucurbitacin E, read-out: IC50): ≤ 20 nM | IC50 [1, 20]: 5 nM | IC50 ([2]; Table 5, NCI-H520, listed as Cucurbitacin E, read-out: IC50): ≤ 20 nM | IC50 [2, 21]: 1 nM | IC50 [3, 26]: ≤ 20 nM | IC50 ([3]; Table 5, A549, read-out: IC50): 20 nM | IC50 [16, 27]: 3460 ± 130 nM | IC50 ([17]; Table 5, A549/Taxol, listed as Cucurbitacin E, read-out: IC50): ≤ 20 nM | IC50 [17, 23]: 2 nM | IC50 ([18]; Homo sapiens): ≤ 30 nM

COc1cc(O)c2c(c1)O[C@H](c1ccc(O)cc1)CC2=O [Compound 5, (−)-(2S)-5,4ʹ-dihydroxy-7-methoxyflavanone]
IC50 [1, 24]: > 40000 nM | IC50 [2, 30]: > 40000 nM | IC50 [3, 31]: > 40000 nM | IC50 [16, 32]: > 40000 nM | IC50 [17, 28]: > 40000 nM

COc1ccc(CCc2cc(=O)c3cc(OC)c(O)cc3o2)cc1 [Compound 6, 7-hydroxy-6-methoxy-2-[2-(4-methoxyphenyl)ethyl]-4H-1-benzopyran-4-one]
IC50 [1, 24]: 1130 ± 30 nM | IC50 [2, 30]: 1840 ± 160 nM | IC50 [3, 31]: 1520 ± 60 nM | IC50 [16, 32]: > 40000 nM | IC50 [17, 28]: 910 ± 10 nM

CC(=O)O[C@H]1C(=O)[C@@]2(C)[C@H]([C@H](OC(=O)c3ccccc3)[C@]3(O)C[C@H](OC(=O)[C@H](O)[C@@H](NC(=O)c4ccccc4)c4ccccc4)C(C)=C1C3(C)C)[C@]1(OC(C)=O)CO[C@@H]1C[C@@H]2O [Paclitaxel]
IC50 ([1]; Homo sapiens, SPCA1, Table 1, SPC-A-1, read-out: IC50): < 0.007 µg/mL | IC50 [1, 24]: < 8 nM | IC50 ([2]; Homo sapiens, Table 1, NCI-H520, read-out: IC50): < 0.007 µg/mL | IC50 [2, 30]: < 8 nM | IC50 ([3]; Homo sapiens, Table 1, A549, read-out: IC50): < 0.007 µg/mL | IC50 [3, 31]: < 8 nM | IC50 ([4]; Homo sapiens, read-out: IC50): < 0.007 µg/mL | IC50 ([5]; Homo sapiens, read-out: IC50): 0.008 ± 0.001 µg/mL (≈ 9.37 nM) | IC50 ([6]; Homo sapiens, read-out: IC50): < 0.007 µg/mL | IC50 ([7]; Homo sapiens, read-out: IC50): < 0.008 µg/mL | IC50 ([8]; Homo sapiens, read-out: IC50): < 0.007 µg/mL | IC50 ([9]; Homo sapiens, read-out: IC50): 0.15 ± 0.02 µg/mL (≈ 176 nM) | IC50 ([10]; Homo sapiens, read-out: IC50): < 0.007 µg/mL | IC50 ([11]; Homo sapiens, read-out: IC50): < 0.007 µg/mL | IC50 ([12]; Homo sapiens, read-out: IC50): < 0.007 µg/mL | IC50 ([13]; Homo sapiens, read-out: IC50): < 0.007 µg/mL | IC50 ([14]; Homo sapiens, MCF7, read-out: IC50): < 0.007 µg/mL | IC50 ([15]; Homo sapiens, read-out: IC50): < 0.007 µg/mL | IC50 [19]: 0.02 ± 0.02 µg/mL (≈ 23.4 nM) | IC50 ([16]; Homo sapiens, BEAS-2B, Table 1, BEAS-2B normal cells, read-out: IC50): 3.66 ± 0.3 µg/mL | IC50 ([16]; Homo sapiens, BEAS-2B, Table 2, BEAS-2B normal cells, read-out: IC50): 1.85 ± 0.19 µg/mL | IC50 ([16]; Homo sapiens, BEAS-2B, Table 3, BEAS-2B normal cells, read-out: IC50): 2.04 ± 0.11 µg/mL | IC50 ([16]; Homo sapiens, BEAS-2B, Table 4, BEAS-2B normal cells, read-out: IC50): 1.94 ± 0.11 µg/mL | IC50 [16, 32]: > 5000 nM | IC50 ([17]; Homo sapiens, A549/Taxol, Table 2, A549/Taxol, read-out: IC50): 0.54 ± 0.09 µg/mL | IC50 ([17]; Homo sapiens, A549/Taxol, Table 3, A549/Taxol, read-out: IC50): 1.45 ± 0.12 µg/mL | IC50 ([17]; Homo sapiens, A549/Taxol, Table 4, A549/Taxol, read-out: IC50): 0.96 ± 0.05 µg/mL | IC50 [17, 28]: 1800 ± 130 nM

aquilaside B
IC50 (SK-MEL cells): 17000 nM

aquilaside C
IC50 (SK-MEL cells): 12000 nM

cucurbitacin B [Compound 4]
IC50 [1, 20]: 16 nM | IC50 [2, 21]: 2 nM | IC50 ([3]; Table 5, A549, read-out: IC50): 30 nM | IC50 [16, 22]: 14400 ± 1360 nM | IC50 [17, 23]: 7 ± 1 nM | IC50 [18, 29]: ≤ 30 nM
